In PubChem BioAssay AID2060509 (Molecular Pharmacology Branch, DTP, NCI, 2025):
Where “and” joins values, the source holds several entries; their conditions need not be identical. Identical values can stand only once.

Test system: 485176-168-R4-J1-PDC spheroids with HUVEC/MSC, viability
Assay: Anticancer human tumor 485176-168-R4-J1-PDC patient-derived pancreatic adenocarcinoma cell line growth inhibition [GQUAD]
Conditions: for viability, T/C: stronger effect = lower value
Description: DNA G-quadruplex Stabilizer Agents in Combinations in Complex Spheroids
A high-throughput screen of multi-cell type tumor spheroids was designed to identify active combinations of DNA G-quadruplex stabilizer agents and targeted small molecules. Complex spheroids include a stromal component modeled by human endothelial cells (HUVEC) and fibroblasts modeled by human mesenchymal stem cells (MSCs). The concentration ranges selected for each drug and investigational agent were based upon clinically achievable concentrations if the clinical Cmax of the agent was known.
Compounds. The drugs and investigational agents: pidnarulex (CX-5461; NSC782164), APTO-253 (NSC789042), BRACO-19 (NSC847499), peposertib (NSC802822), ceralasertib (NSC780249), elimusertib (NSC800525), camonsertib (NSC841442), AZD-1390 (NSC803789), olaparib (NSC753686), talazoparib (NSC767125), ART-558 (NSC835418), sotorasib (NSC818433), MRTX-1133 (NSC836407), SN-38 (NSC673596), topotecan (NSC609699), etoposide (NSC141540), doxorubicin (NSC123127), gemcitabine (NSC613327), 5-fluorouracil (NSC19893), paclitaxel (NSC125973), vemurafenib (NSC761431), panobinostat (NSC761190), R-306465 (JNJ-16241199; NSC773264), adavosertib (NSC754352), TP-3654 (NSC805149), carboplatin (NSC241240), KSQ-4279 (NSC840948), and staurosporine (NSC755774) were obtained from the National Cancer Institute (NCI) Developmental Therapeutics Program Chemical Repository (34). The FDA-approved anticancer drug set is available from the NCI Developmental Therapeutics Program. […] The stock solutions were prepared in dimethyl sulfoxide (DMSO, Sigma-Aldrich, St. Louis, MO, cat. D2650) at 800-fold the tested concentration and stored at -70 degrees C prior to their use. All drugs and investigational agents were tested over a range starting from a high concentration at or near the clinical Cmax and decreasing in half-log increments. If the clinical Cmax for an agent had not been determined, the highest concentration tested was 10 microM.
2.3 Cell Culture. All cells were maintained in an incubator at 37 degrees C and 5% CO2 with 95% humidity. The PDC lines were cultured according to standard operating procedures established by the NCI PDMR. All PDCs were thawed and cultured in Matrigel-coated flasks prepared with a working solution of 1X Ham's F-12 nutrient mix, without supplementation (Invitrogen, cat. 11765054), 100 U/mL penicillin-streptomycin (Invitrogen, cat. 15140122), and 2.5% Matrigel (Corning Inc., cat. 354248) for the first three passages. The 857933-349-R-J2-PDC line was cultured in 6C/Colon 1B media, which includes advanced DMEM/F-12 (Thermo Fisher Scientific, cat. 12634028), 10 mM HEPES (Thermo Fisher Scientific, cat. 15630080), 1X GlutaMAX supplement (Thermo Fisher Scientific, cat. 35050061), 0.1 mg/mL primocin (InvivoGen, cat. ant-pm-2), 10% defined fetal bovine serum, heat inactivated (HyClone Laboratories Inc., cat. SH30070.03HI), 50% L-WRN conditioned media (ATCC, cat. CRL-3276), 1.25 mM N-Acetyl-L-cysteine (Sigma-Aldrich, cat. A9165), 10 mM nicotinamide (Sigma-Aldrich, cat. N0636), 1X B-27 supplement (Thermo Fisher Scientific, cat. 17504044), 1X N-2 supplement (Thermo Fisher Scientific, cat. 17502048), 10 microM Y-27632 dihydrochloride (Tocris Bioscience, cat. 1254), and 50 ng/mL human EGF recombinant protein (Thermo Fisher Scientific, cat. PHG0311). The 485176-168-R4-J1-PDC line was cultured in Panc media, which includes all 6C/Colon 1B media components plus 100 ng/mL human FGF-10 (Thermo Fisher Scientific, cat. 100-26), 500 nM SB-431542 (Selleckchem, cat. S1067), and gastrin (Tocris, cat. 3006).
[…]

[1] = curve of first compound, second compound 0.0316 µM
[2] = curve of first compound, second compound 0.1 µM
[3] = curve of first compound, second compound 0.316 µM
[4] = curve of first compound, second compound 1 µM
[5] = curve of first compound, second compound 3.16 µM
[6] = curve of first compound, second compound 10 µM
[7] = second compound 0.0316 µM, first compound 0.0316 µM
[8] = second compound 0.0316 µM, first compound 0.1 µM
[9] = second compound 0.0316 µM, first compound 0.316 µM
[10] = second compound 0.0316 µM, first compound 1 µM
[11] = second compound 0.0316 µM, first compound 3.16 µM
[12] = second compound 0.0316 µM, first compound 10 µM
[13] = second compound 0.1 µM, first compound 0.0316 µM
[14] = second compound 0.1 µM, first compound 0.1 µM
[15] = second compound 0.1 µM, first compound 0.316 µM
[16] = second compound 0.1 µM, first compound 1 µM
[17] = second compound 0.1 µM, first compound 3.16 µM
[18] = second compound 0.1 µM, first compound 10 µM
[19] = second compound 0.316 µM, first compound 0.0316 µM
[20] = second compound 0.316 µM, first compound 0.1 µM
[21] = second compound 0.316 µM, first compound 0.316 µM
[22] = second compound 0.316 µM, first compound 1 µM
[23] = second compound 0.316 µM, first compound 3.16 µM
[24] = second compound 0.316 µM, first compound 10 µM
[25] = second compound 1 µM, first compound 0.0316 µM
[26] = second compound 1 µM, first compound 0.1 µM
[27] = second compound 1 µM, first compound 0.316 µM
[28] = second compound 1 µM, first compound 1 µM
[29] = second compound 1 µM, first compound 3.16 µM
[30] = second compound 1 µM, first compound 10 µM
[31] = second compound 3.16 µM, first compound 0.0316 µM
[32] = second compound 3.16 µM, first compound 0.1 µM
[33] = second compound 3.16 µM, first compound 0.316 µM
[34] = second compound 3.16 µM, first compound 1 µM
[35] = second compound 3.16 µM, first compound 3.16 µM
[36] = second compound 3.16 µM, first compound 10 µM
[37] = second compound 10 µM, first compound 0.0316 µM
[38] = second compound 10 µM, first compound 0.1 µM
[39] = second compound 10 µM, first compound 0.316 µM
[40] = second compound 10 µM, first compound 1 µM
[41] = second compound 10 µM, first compound 3.16 µM
[42] = second compound 10 µM, first compound 10 µM
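Also: spheroids exposed to compounds for seven days before readout.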
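For viability, T/C in this document: percent viability relative to DMSO vehicle control wells as 100%.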

## CC1COCCN1c1cc(C2(S(C)(=N)=O)CC2)nc(-c2ccnc3[nH]ccc23)n1 (stereo not given) + CN(C)c1ccc(Nc2c3ccc(NC(=O)CCN4CCCC4)cc3nc3cc(NC(=O)CCN4CCCC4)ccc23)cc1
[1]
  IC50: 2.21 µM
[2]
  IC50: 1.87 µM
[3]
  IC50: 2.11 µM
[4]
  IC50: 2.07 µM
[5]
  IC50: 1.99 µM
[6]
  IC50: 1.49 µM
[7]
  viability, T/C: 92.4%
[8]
  viability, T/C: 85.2%
[9]
  viability, T/C: 86.2%
[10]
  viability, T/C: 75%
[11]
  viability, T/C: 38.7%
[12]
  viability, T/C: 15.9%
[13]
  viability, T/C: 100%
[14]
  viability, T/C: 81.9%
[15]
  viability, T/C: 84.6%
[16]
  viability, T/C: 69.9%
[17]
  viability, T/C: 33.6%
[18]
  viability, T/C: 17.6%
[19]
  viability, T/C: 103%
[20]
  viability, T/C: 101%
[21]
  viability, T/C: 97.8%
[22]
  viability, T/C: 76.3%
[23]
  viability, T/C: 35.7%
[24]
  viability, T/C: 15.6%
[25]
  viability, T/C: 115%
[26]
  viability, T/C: 85.6%
[27]
  viability, T/C: 109%
[28]
  viability, T/C: 70.2%
[29]
  viability, T/C: 38.5%
[30]
  viability, T/C: 18%
[31]
  viability, T/C: 90.8%
[32]
  viability, T/C: 99.2%
[33]
  viability, T/C: 97.5%
[34]
  viability, T/C: 69.1%
[35]
  viability, T/C: 37.1%
[36]
  viability, T/C: 15.8%
[37]
  viability, T/C: 88.2%
[38]
  viability, T/C: 100%
[39]
  viability, T/C: 81.2%
[40]
  viability, T/C: 59.5%
[41]
  viability, T/C: 32.8%
[42]
  viability, T/C: 20.3%

## C#Cc1c(F)ccc2cc(O)cc(-c3ncc4c(N5CC6CCC(C5)N6)nc(OCC56CCCN5CC(F)C6)nc4c3F)c12 (stereo not given)
Compound 0.0316 µM
  viability, T/C: 95.2% and 109% and 105%
Compound 0.1 µM
  viability, T/C: 89% and 86.3% and 108%
Compound 0.316 µM
  viability, T/C: 92.7% and 88.4% and 95.7%
Compound 1 µM
  viability, T/C: 89.8% and 104% and 109%
Compound 3.16 µM
  viability, T/C: 104% and 96.4% and 97.2%
Compound 10 µM
  viability, T/C: 95.4% and 93.5% and 104%
Curve of compound
  IC50: > 10 µM

## O=C(NO)c1cnc(N2CCN(S(=O)(=O)c3ccc4ccccc4c3)CC2)nc1
Compound 0.0316 µM
  viability, T/C: 83.4% and 107% and 97.9%
Compound 0.1 µM
  viability, T/C: 99.5% and 73.2% and 76.1%
Compound 0.316 µM
  viability, T/C: 67.6% and 78.2% and 61.2%
Compound 1 µM
  viability, T/C: 7.2% and 12.1% and 11%
Compound 3.16 µM
  viability, T/C: 0.3% and 0.31% and 0.2%
Compound 10 µM
  viability, T/C: 0.3% and 0.31% and 0.29%
Curve of compound
  IC50: 0.443 µM and 0.512 µM and 0.378 µM

## CC(C)n1c(=O)n(C)c2cnc3cc(F)c(-c4ccc(OCCCN5CCCCC5)nc4)cc3c21 + Cc1cnc(CNC(=O)c2c(=O)c3ccc(N4CCCN(C)CC4)nc3n3c2sc2ccccc23)cn1
[1]
  IC50: > 10 µM
[2]
  IC50: < 0.0316 µM
[3]
  IC50: < 0.0316 µM
[4]
  IC50: < 0.0316 µM
[5]
  IC50: < 0.0316 µM
[6]
  IC50: < 0.0316 µM
[7]
  viability, T/C: 65%
[8]
  viability, T/C: 50.2%
[9]
  viability, T/C: 63.1%
[10]
  viability, T/C: 59.2%
[11]
  viability, T/C: 62.2%
[12]
  viability, T/C: 61.2%
[13]
  viability, T/C: 40.2%
[14]
  viability, T/C: 47.4%
[15]
  viability, T/C: 35.6%
[16]
  viability, T/C: 50%
[17]
  viability, T/C: 49.2%
[18]
  viability, T/C: 47.5%
[19]
  viability, T/C: 39.6%
[20]
  viability, T/C: 36%
[21]
  viability, T/C: 30.4%
[22]
  viability, T/C: 33.5%
[23]
  viability, T/C: 34.5%
[24]
  viability, T/C: 41.3%
[25]
  viability, T/C: 27%
[26]
  viability, T/C: 30.2%
[27]
  viability, T/C: 34.2%
[28]
  viability, T/C: 34.5%
[29]
  viability, T/C: 30%
[30]
  viability, T/C: 34.7%
[31]
  viability, T/C: 36.1%
[32]
  viability, T/C: 34.3%
[33]
  viability, T/C: 33.5%
[34]
  viability, T/C: 34.7%
[35]
  viability, T/C: 29.5%
[36]
  viability, T/C: 25.6%
[37]
  viability, T/C: 27%
[38]
  viability, T/C: 27.7%
[39]
  viability, T/C: 28.9%
[40]
  viability, T/C: 28.2%
[41]
  viability, T/C: 25.2%
[42]
  viability, T/C: 24.5%

## COc1ncnc(C2CC2)c1-c1ncc2cnn(Cc3ccc(-c4nc(C(F)(F)F)cn4C(C)C)cc3)c2n1 + CN(C)c1ccc(Nc2c3ccc(NC(=O)CCN4CCCC4)cc3nc3cc(NC(=O)CCN4CCCC4)ccc23)cc1
[1]
  IC50: > 10 µM
[2]
  IC50: > 10 µM
[3]
  IC50: > 10 µM
[4]
  IC50: > 10 µM
[5]
  IC50: > 10 µM
[6]
  IC50: > 10 µM
[7]
  viability, T/C: 86.9%
[8]
  viability, T/C: 83.5%
[9]
  viability, T/C: 109%
[10]
  viability, T/C: 107%
[11]
  viability, T/C: 97.8%
[12]
  viability, T/C: 94.3%
[13]
  viability, T/C: 123%
[14]
  viability, T/C: 95.2%
[15]
  viability, T/C: 106%
[16]
  viability, T/C: 93.3%
[17]
  viability, T/C: 104%
[18]
  viability, T/C: 89.5%
[19]
  viability, T/C: 96.3%
[20]
  viability, T/C: 95.5%
[21]
  viability, T/C: 103%
[22]
  viability, T/C: 96%
[23]
  viability, T/C: 87.4%
[24]
  viability, T/C: 98%
[25]
  viability, T/C: 88.1%
[26]
  viability, T/C: 97.1%
[27]
  viability, T/C: 105%
[28]
  viability, T/C: 74.3%
[29]
  viability, T/C: 99.9%
[30]
  viability, T/C: 83.3%
[31]
  viability, T/C: 94.3%
[32]
  viability, T/C: 96.8%
[33]
  viability, T/C: 87.9%
[34]
  viability, T/C: 102%
[35]
  viability, T/C: 92.5%
[36]
  viability, T/C: 88.1%
[37]
  viability, T/C: 90.5%
[38]
  viability, T/C: 81.2%
[39]
  viability, T/C: 86.8%
[40]
  viability, T/C: 86.8%
[41]
  viability, T/C: 72.4%
[42]
  viability, T/C: 70.2%
